# Measured values reported in publication PMC9065260 (Frontiers in Pharmacology, 2022).
# Values joined by “and” are separate entries in the source; they are usually repeats but may differ in a detail not shown here. Equal values may be shown once.
# Legend:
# HCC827GR cells [1] = experiment: Plate clone formation assay; assay type: cell-based, human; conditions: HCC827GR, 2.5, 5 and 10 µM, 10 days
# Method: (§1) Cells were seeded in 6-well plates with a density of 200 cells/well and cultured overnight for attachment. […] Medium with or without compounds was changed every 48 h. When colony formation was visible, the medium was discharged. Then, the colonies were washed with cold PBS, fixed with 4% paraformaldehyde (PFA) for at least 30 min, and then stained with 0.2% crystal violet solution in 100% ethanol for 20 min.
# KYSE450TR cells [2] = experiment: Plate clone formation assay; assay type: cell-based, human; conditions: KYSE450TR, 2.5, 5 and 10 µM, 10 days
# Method: as §1
# KYSE450 cells [3] = experiment: Plate clone formation assay; assay type: cell-based, human; conditions: KYSE450, 2.5, 5 and 10 µM, 10 days
# Method: as §1
# HCC827 cells [4] = experiment: Plate clone formation assay; assay type: cell-based, human; conditions: HCC827, 2.5, 5 and 10 µM, 10 days
# Method: as §1
# KYSE70 cells = experiment: MTT assay for cell proliferation and cytotoxicity; assay type: cell-based; conditions: Homo sapiens, KYSE-70; MTT, 48 h, mean ± SD; read-out: IC50 KYSE70
# Method: (§3) The compounds were dissolved in DMSO to make a 50 mM stock solution and were diluted to the concentration of working solutions with the complete growth medium before administration.
# (§4) Cells were seeded in 96-well plates with densities of 2,200–2,500 cells/well in 100 μL. One day after seeding, the concentration of the test compounds between 0 and 50 μM, 0.1% DMSO was added to cells as control. […] After 48 h, MTT was added and incubated in the plate for 1–4 h in the incubator.
# KYSE450TR cells [5] = experiment: Flow cytometry detection for cell apoptosis (Annexin V/PI); assay type: cell-based, human; conditions: 48 h
# Method: (§2) Cell apoptosis analysis was carried out by flow cytometry using the Annexin V/PI apoptosis methods. […] The cells were harvested and incubated with 250 μL of 1 × Annexin V binding buffer containing 5 μL of PI and 5 μL of FITC Annexin V (final concentration 1.8 μg/ml, Biolegend cat: 640945) for 15 min at room temperature in the dark. Then 200 µL of 1 × binding buffer was added for flow cytometry analysis (BD FACSCalibur™ Flow Cytometer).
# KYSE450 cells [6] = experiment: as above; assay type: cell-based, human; conditions: 48 h
# Method: as §2
# KYSE450TR cells [7] = experiment: MTT assay, drug-resistant cell line; assay type: cell-based, human; conditions: Homo sapiens; MTT, paclitaxel-resistant esophageal cancer cell line; read-out: IC50 KYSE450TR
# Method: as §3, §4
# KYSE410 cells = experiment: MTT assay for cell proliferation and cytotoxicity; assay type: cell-based; conditions: Homo sapiens, KYSE-410; MTT, 48 h, mean ± SD; read-out: IC50 KYSE410
# Method: as §3, §4
# KYSE450 cells [8] = experiment: MTT assay for cell proliferation and cytotoxicity; assay type: cell-based; conditions: Homo sapiens, KYSE-450; MTT, 48 h, mean ± SD; read-out: IC50 KYSE450
# Method: as §3, §4
# KYSE450TR cells [9] = experiment: Cell cycle analysis by flow cytometry; assay type: cell-based, human; conditions: 24 h
# Method: (§5) KYSE450 and KYSE450TR cells were plated in 6-well plates with a density of 1 × 10^5 cells/well and cultured overnight to attach. […] After trypsinization treatment, the cells were collected by centrifugation. The cell pellet was re-suspended in 70% ethanol at −20°C for at least 3 h. […] Cells were re-transferred to the BD FACSCalibur™ Flow Cytometer. All analyses were performed with FlowJo software v105.3.6.
# [10] = biological target: T1, EGFR mutant protein (672-1210, L858R) (Homo sapiens, UniProt P00533, L858R); experiment: Surface plasmon resonance (SPR) EGFR protein affinity; assay type: binding
# T1 construct: the EGFR mutant type (672-1210, L858R, Active MOTIF, cat: 81200); purchased Active MOTIF 81200
# Method: Surface plasmon resonance experiments were carried out to evaluate the interaction between 3d with the EGFR wild-type (0.468 μg/μL, Active MOTIF, cat: 31165) and the EGFR mutant type (672-1210, L858R, Active MOTIF, cat: 81200). The interaction of erlotinib with wild-type EGFR was also studied. Biacore T-200 (GE healthcare, Waukesha, WI, United States) equipment was used for the study. First, the EGFR wild-type (0.468 μg/μL, Active MOTIF, cat: 31165) and the EGFR mutant type (672-1210, L858R, Active MOTIF, cat: 81200) were covalently immobilized at densities of 2000 response units onto a CM5 sensor chip. Then, 3d dissolved in DMSO was injected at concentrations between 0.064 and 5,000 nM at 25°C. […] During the interaction, the changes in the refractive index were measured in real time to allow the plotting of the results of interaction as response units versus time. The interaction results were analyzed with BIA evaluation 3.0 software.
# [11] = biological target: T2, EGFR wild-type protein (H672-E410) (Homo sapiens, UniProt P00533); experiment: as above; assay type: binding; conditions: immobilized wild-type EGFR
# T2 construct: purchased Active MOTIF 31165
# Method: Biacore T-200 (GE healthcare, Waukesha, WI, United States) equipment was used for the study. […] During the interaction, the changes in the refractive index were measured in real time to allow the plotting of the results of interaction as response units versus time. The interaction results were analyzed with BIA evaluation 3.0 software.
# [12] = system: KYSE450 cells (caspase-3, cytochrome-c, PARP); experiment: Western blot of apoptosis-related marker proteins; assay type: cell-based, human; conditions: KYSE450, 4 μM, 6, 12 and 24 h vs control at 0 h
# Method: KYSE450 cells (3 × 10^5/well) were incubated overnight in 10 square petri dishes and then treated with compound 3d at 4 μM for 0, 6, 12, and 24 h. Cells treated with 0.1% DMSO were used as control. Then, the cells were harvested, and total proteins were extracted. […] The membrane was blocked for 1 h, then incubated overnight with a 1:1000 dilution of anti-caspase-3, anti-cytochrome-c, and anti-PARP, or 1 : 3,000 dilution of anti-β-action primary antibody at 4°C. Finally, 1 : 3,000 anti-rabbit secondary antibodies were incubated for 2 h at room temperature. Protein bands were developed by chemiluminescence.
# KYSE410TR cells = experiment: MTT assay, drug-resistant cell line; assay type: cell-based, human; conditions: Homo sapiens; MTT, paclitaxel-resistant esophageal cancer cell line; read-out: IC50 KYSE410TR
# Method: as §3, §4
# H1650 cells = experiment: MTT assay for cell proliferation and cytotoxicity; assay type: cell-based; conditions: Homo sapiens, NCI-H1650; MTT, 48 h, mean ± SD; read-out: IC50 H1650
# Method: as §3, §4
# HCC827 cells [13] = experiment: MTT assay for cell proliferation and cytotoxicity; assay type: cell-based; conditions: Homo sapiens, 48 h, mean ± SD
# Method: as §3, §4
# H1650TR cells = experiment: MTT assay, drug-resistant cell line; assay type: cell-based, human; conditions: Homo sapiens; MTT, paclitaxel-resistant lung cancer cell line; read-out: IC50 H1650TR
# Method: as §3, §4
# KYSE450 cells [14] = experiment: Cell cycle analysis by flow cytometry; assay type: cell-based, human; conditions: 24 h
# Method: as §5
# [15] = system: human esophageal epithelial cell SHEE; experiment: MTT assay, toxicity against normal cells; assay type: cell-based; conditions: MTT, normal human esophageal epithelial cells, mean ± SD, read-out: IC50 SHEE
# Method: Cells were seeded in 96-well plates with densities of 2,200–2,500 cells/well in 100 μL. One day after seeding, the concentration of the test compounds between 0 and 50 μM, 0.1% DMSO was added to cells as control. Approximately 2200-2500 transfected cells in 100 μL were incubated in quintuplicate in 96-well plates. After 48 h, MTT was added and incubated in the plate for 1–4 h in the incubator.
# HCC827GR cells [16] = experiment: MTT assay, drug-resistant cell line; assay type: cell-based, human; conditions: Homo sapiens; MTT, gefitinib-resistant lung cancer cell line; read-out: IC50 HCC827GR
# Method: as §3, §4
# KYSE70TR cells = experiment: MTT assay, drug-resistant cell line; assay type: cell-based, human; conditions: Homo sapiens; MTT, paclitaxel-resistant esophageal cancer cell line; read-out: IC50 KYSE70TR
# Method: as §3, §4
structure (smiles),measurement,setting,value
"COCCOc1cc2ncnc(Nc3cccc(-c4cn(Cc5cc(Br)cc(Br)c5)nn4)c3)c2cc1OCCOC [Compound 3d, [6,7-Bis-(2-Methoxy-Ethoxy)-Quinazolin-4-yl]-{3-[1-(3,5-Dibromo-Benzyl)-1H-(1,2,3)Triazol-4-yl]-Phenyl}-Amine]",inhibition effect on colony formation,HCC827GR cells [1],more significant than that of erlotinib
same,inhibition effect on colony formation,KYSE450TR cells [2],more significant than that of erlotinib
same,inhibition effect on colony formation,KYSE450 cells [3],more significant than that of erlotinib
same,inhibition effect on colony formation,HCC827 cells [4],more significant than that of erlotinib
same,IC50,KYSE70 cells,5.43 ± 0.21 µM
same,proportion of apoptotic cells,KYSE450TR cells [5]; 5 μM,44.12%
same,proportion of apoptotic cells,KYSE450TR cells [5]; 10 μM,48.77%
same,proportion of apoptotic cells,"KYSE450 cells [6]; KYSE450, 5 μM",24.50%
same,proportion of apoptotic cells,"KYSE450 cells [6]; KYSE450, 10 μM",69.64%
same,IC50,KYSE450TR cells [7],10 ± 0.75 µM
same,IC50,KYSE410 cells,6.91 ± 0.4 µM
same,IC50,KYSE450 cells [8],4.23 ± 0.19 µM
same,ratio of cells in G0/G1 phase,KYSE450TR cells [9]; 3.5 μM,34.92%
same,ratio of cells in G2/M phase,KYSE450TR cells [9]; 3.5 μM,22.86%
same,ratio of cells in S phase,KYSE450TR cells [9]; 3.5 μM,42.22%
same,ratio of cells in G0/G1 phase,KYSE450TR cells [9]; 7 μM,37.56%
same,ratio of cells in G2/M phase,KYSE450TR cells [9]; 7 μM,23.94%
same,ratio of cells in S phase,KYSE450TR cells [9]; 7 μM,38.50%
same,ratio of cells in G0/G1 phase,KYSE450TR cells [9]; 14 μM,43.34%
same,ratio of cells in G2/M phase,KYSE450TR cells [9]; 14 μM,23.39%
same,ratio of cells in S phase,KYSE450TR cells [9]; 14 μM,33.27%
same,ratio of cells in G0/G1 phase,KYSE450TR cells [9]; 28 μM,41.19%
same,ratio of cells in G2/M phase,KYSE450TR cells [9]; 28 μM,27.28%
same,ratio of cells in S phase,KYSE450TR cells [9]; 28 μM,31.53%
same,cell cycle phase in which cells are arrested,KYSE450TR cells [9]; 3.5-28 μM,G2/M phase
same,Kd,"[10]; immobilized mutant EGFR (L858R), 25°C",3.12 µM and 3.13 µM
same,Rmax,[10]; immobilized mutant EGFR (mEGFR),21.16 RU
same,Rmax,[11],12.9 RU
same,Kd,[11]; 25°C,6.88 µM and 6.89 µM
same,caspase-3 protein level,[12],higher than those in the control at 0 h
same,cleaved PARP protein level,[12],higher than those of the control at 0 h
same,cytochrome-c protein level,[12],higher than those in the control at 0 h
same,IC50,KYSE410TR cells,7.91 ± 0.61 µM
same,IC50,H1650 cells,2.99 ± 0.13 µM
same,IC50,HCC827 cells [13],8.17 ± 0.42 µM
same,IC50,H1650TR cells,5.76 ± 0.33 µM
same,ratio of cells in G0/G1 phase,"KYSE450 cells [14]; KYSE450, 3.5 μM",57.83%
same,ratio of cells in G2/M phase,"KYSE450 cells [14]; KYSE450, 3.5 μM",16.5%
same,ratio of cells in S phase,"KYSE450 cells [14]; KYSE450, 3.5 μM",25.67%
same,ratio of cells in G0/G1 phase,"KYSE450 cells [14]; KYSE450, 7 μM",56.56%
same,ratio of cells in G2/M phase,"KYSE450 cells [14]; KYSE450, 7 μM",18.74%
same,ratio of cells in S phase,"KYSE450 cells [14]; KYSE450, 7 μM",24.7%
same,ratio of cells in G0/G1 phase,"KYSE450 cells [14]; KYSE450, 14 μM",60.37%
same,ratio of cells in G2/M phase,"KYSE450 cells [14]; KYSE450, 14 μM",15.47%
same,ratio of cells in S phase,"KYSE450 cells [14]; KYSE450, 14 μM",24.16%
same,ratio of cells in G0/G1 phase,"KYSE450 cells [14]; KYSE450, 28 μM",55.21%
same,ratio of cells in G2/M phase,"KYSE450 cells [14]; KYSE450, 28 μM",20.66%
same,ratio of cells in S phase,"KYSE450 cells [14]; KYSE450, 28 μM",24.13%
same,cell cycle phase in which cells are arrested,"KYSE450 cells [14]; KYSE450, 3.5-28 μM",G0/G1 phase
same,IC50,[15],> 50 µM
same,IC50,HCC827GR cells [16],2.38 ± 0.17 µM
same,IC50,KYSE70TR cells,7.17 ± 0.73 µM
